Experimental data from patent US10793557B2, “Sting agonist compounds” (Merck Sharp & Dohme Corp., priority 2018, dated 2020).

Columns and labels:
[1] = target: T1, full-length HAQ STING (Homo sapiens, UniProt Q86WV6, G230A/H232R/R293Q/R71H); experiment: 3H-cGAMP filtration binding assay (HAQ STING); conditions: competition with tritiated cGAMP, HAQ STING membrane
T1 construct: AviTag (after GG linker) (C); HRV3C cleavage site (after GS linker) (C); HIS8 (C); made in house; host or cells: Trichoplusia ni (Hi-Five) insect cells infected with baculovirus (virus generated and amplified in Sf21 cells); used as a washed membrane preparation
How it was run: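 Hi-Five (T. ni) membranes overexpressing the STING variant (2.2 ug/ml working) preincubated with compound 60 min at RT in PBS, then [3H]cGAMP (8 nM working stock) added for 60 min at RT. Bound radioactivity captured on GF/B filters and counted by scintillation; EC50 from 4-parameter fit of control-normalized activity.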

[2] = target: T2, full-length WT STING (Homo sapiens, UniProt Q86WV6, H232R); experiment: 3H-cGAMP filtration binding assay (WT STING); conditions: for EC50: competition with tritiated cGAMP, WT STING membrane
T2 construct: AviTag (after gg linker) (C); HRV3C cleavage site (after gs linker) (C); HIS8 (C); made in house; host or cells: Trichoplusia ni (Hi-Five) insect cells infected with baculovirus (virus generated and amplified in Sf21 cells); used as a washed membrane preparation
How it was run: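 Competitive filtration binding of [3H]cGAMP (16 nM working stock) to T. ni membranes overexpressing full-length WT human STING, 60 min at RT in PBS. Bound radioactivity counted after GF/B filtration; 10-point 1:3 titration, EC50 from 4-parameter fit after control normalisation.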

[3] = system: secretion of interferon-beta from THP1 cells; experiment: IFN-β secretion in THP1 cell culture (5 h); assay type: cell-based; conditions: Homo sapiens, THP-1, 5 h, 30 uM cGAMP = 100%; for activation at 30 µM: compound at 30 μM, read-out: % Effect at 30 μM relative to 2′3′-cGAMP; for activation at 3 µM: compound at 3 uM, read-out: % Effect relative to 2′3′-cGAMP (@ 3 uM)
How it was run: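 Thawed THP1 cells (0.8×10^6/mL, RPMI with 0.5% FBS) exposed to compounds 1.5–30000 nM (0.3% DMSO) for 5 h at 37 °C. Supernatant IFN-β quantified by AlphaLISA. Percent effect normalised to 30 uM cGAMP and DMSO controls; EC50 from 4-parameter fit.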

T1 sequence (Q86WV6 with tags, fused parts or gaps R71H/G230A/H232R/R293Q): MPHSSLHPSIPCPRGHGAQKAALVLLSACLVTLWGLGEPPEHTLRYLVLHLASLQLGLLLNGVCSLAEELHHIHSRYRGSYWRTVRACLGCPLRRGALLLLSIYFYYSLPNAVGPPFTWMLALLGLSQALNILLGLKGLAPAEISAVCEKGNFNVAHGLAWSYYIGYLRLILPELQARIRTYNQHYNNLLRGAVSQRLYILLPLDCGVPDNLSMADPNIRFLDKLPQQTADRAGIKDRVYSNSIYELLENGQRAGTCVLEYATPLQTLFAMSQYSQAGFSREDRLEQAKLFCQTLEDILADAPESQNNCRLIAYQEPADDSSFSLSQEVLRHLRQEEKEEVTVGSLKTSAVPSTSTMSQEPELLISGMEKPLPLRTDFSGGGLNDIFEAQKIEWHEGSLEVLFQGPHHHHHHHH
T2 sequence (Q86WV6 with tags, fused parts or gaps H232R): as the sequence (Q86WV6 with tags, fused parts or gaps R71H/G230A/H232R/R293Q) above, with H71R, A230G, Q293R counted along it

EC50 [1] [nM]	EC50 [2] [nM]	inhibition at 20 µM ([2]; at 20,000 nM compound) [%]	inhibition at 2 µM ([2]; at 2,000 nM compound) [%]	SMILES	activation at 30 µM [3] [%]	activation at 3 µM [3] [%]
4	19			COc1cc2sc(C(=O)C[C@H](C)C(=O)O)cc2c(F)c1OCCCOc1cc2sc(C(=O)C[C@H](C)C(=O)O)cc2nc1OC [Example 167, (S)-4-(6-(3-((2-((S)-3-carboxybutanoyl)-4-fluoro-6-methoxybenzo[b]thiophen-5-yl)oxy)propoxy)-5-methoxythieno[3,2-b]pyridin-2-yl)-2-methyl-4-oxobutanoic acid]	66	
13	199			COc1cc2sc(C(=O)CCC(=O)O)cc2c(F)c1OCCCOc1cc2sc(C(=O)C[C@H](C)C(=O)O)cc2nc1OC [Example 168, (S)-4-(6-(3-((2-(3-carboxypropanoyl)-4-fluoro-6-methoxybenzo[b]thiophen-5-yl)oxy)propoxy)-5-methoxythieno[3,2-b]pyridin-2-yl)-2-methyl-4-oxobutanoic acid]	102	
1	18			COc1cc2sc(C(=O)C[C@H](C)C(=O)O)cc2cc1OCCCOc1c(OC)cc2sc(CC[C@H](C)C(=O)O)cc2c1F [Example 169, (S)-4-(5-(3-((2-((S)-3-carboxybutyl)-4-fluoro-6-methoxybenzo[b]thiophen-5-yl)oxy)propoxy)-6-methoxybenzo[b]thiophen-2-yl)-2-methyl-4-oxobutanoic acid]	64	
1	3			COc1cc2sc(C(=O)C[C@H](C)C(=O)O)cc2cc1OCCCOc1c(OC)cc2sc(C(=O)[C@@H]3CC[C@H]3C(=O)O)cc2c1F [Example 170, trans-2-(5-(3-((2-((S)-3-carboxybutanoyl)-6-methoxybenzo[b]thiophen-5-yl)oxy)propoxy)-4-fluoro-6-methoxybenzo[b]thiophene-2-carbonyl)cyclobutanecarboxylic acid]	86	
9	59			COc1cc2cc(C(=O)C[C@H](C)C(=O)O)sc2cc1OCCCOc1c(OC)cc2sc(C(=O)[C@@H]3CC[C@H]3C(=O)O)cc2c1F [Example 171, trans-2-(5-(3-((2-((S)-3-carboxybutanoyl)-5-methoxybenzo[b]thiophen-6-yl)oxy)propoxy)-4-fluoro-6-methoxybenzo[b]thiophene-2-carbonyl)cyclobutanecarboxylic acid]	97	
454	15100			COc1cc2sc(C(=O)C[C@H](C)C(=O)O)cc2c(Cl)c1OCCCCOc1c(OC)cc2sc(C(=O)C[C@H](C)C(=O)O)cc2c1Cl [Example 172, (2S,2′S)-4,4′-(5,5′-(butane-1,4-diylbis(oxy))bis(4-chloro-6-methoxybenzo[b]thiophene-5,2-diyl))bis(2-methyl-4-oxobutanoic acid)]		16
1	3			COc1cc2sc(C(=O)CCC(=O)O)cc2nc1CCCOc1c(OC)cc2sc(C(=O)CCC(=O)O)cc2c1F [Example 173]	127	
1	1			COc1cc2sc(C(=O)CCC(=O)O)cc2nc1CCCOc1c(OC)cc2sc(C(=O)C[C@H](C)C(=O)O)cc2c1F [Example 174, (S)-4-(5-(3-(2-(3-carboxypropanoyl)-6-methoxythieno[3,2-b]pyridin-5-yl)propoxy)-4-fluoro-6-methoxybenzo[b]thiophen-2-yl)-2-methyl-4-oxobutanoic acid]	88	
4020		46		COc1cc2sc(C(=O)CCC#N)cc2cc1CCCc1cc2cc(C(=O)CCC#N)sc2cc1OC [Example 175, 4,4′-(Propane-1,3-diylbis(6-methoxybenzo[b]thiophene-5,2-diyl))bis(4-oxobutanenitrile)]	13	
1	2			COc1cc2sc(C(=O)C[C@H](C)C(=O)O)cc2cc1NCCCOc1c(OC)cc2sc(C(=O)C[C@H](C)C(=O)O)cc2c1F [Example 176, (S)-4-(5-((3-((2-((S)-3-Carboxybutanoyl)-4-fluoro-6-methoxybenzo [b]thiophen-5-yl)oxy)propyl)amino)-6-methoxybenzo[b]thiophen-2-yl)-2-methyl-4-oxobutanoic acid]	44	
68	720			COc1cc2sc(C(=O)CCC(=O)O)cc2cc1CCCNc1cc2cc(C(=O)C[C@H](C)C(=O)O)sc2cc1OC [Example 177, (S)-4-(5-((3-(2-(3-carboxypropanoyl)-6-methoxybenzo[b]thiophen-5-yl)propyl)amino)-6-methoxybenzo[b]thiophen-2-yl)-2-methyl-4-oxobutanoic acid]	80	
4	31			COc1cc2sc(C(=O)C[C@H](C)C(=O)O)cc2cc1OCCCOc1c(OC)cc2sc(C(=O)C[C@H](C)C(=O)NS(=O)(=O)N(C)C)cc2c1F [Example 178, (S)-4-(5-(3-((2-((S)-4-((N,N-Dimethylsulfamoyl)amino)-3-methyl-4-oxobutanoyl)-4-fluoro-6-methoxybenzo[b]thiophen-5-yl)oxy)propoxy)-6-methoxybenzo[b]thiophen-2-yl)-2-methyl-4-oxobutanoic acid]	107	
1	1			COc1cc2sc(C(=O)C[C@H](C)C(=O)O)cc2cc1OCCCOc1c(OC)cc2sc(C(=O)C[C@H](C)C(=O)NS(C)(=O)=O)cc2c1F [Example 179, (S)-4-(5-(3-((4-fluoro-6-methoxy-2-((S)-3-methyl-4-(methylsulfonamido)-4-oxobutanoyl)-benzo[b]thiophen-5-yl)oxy)propoxy)-6-methoxybenzo[b]thiophen-2-yl)-2-methyl-4-oxobutanoic acid]	79	
1	1			COc1cc2sc(C(=O)C[C@H](C)C(=O)O)cc2c(F)c1OCCCOc1cc2cc(C(=O)C[C@H](C)C(=O)O)sc2cc1O [Example 180, (S)-4-(5-(3-((2-((S)-3-Carboxybutanoyl)-4-fluoro-6-methoxybenzo[b]thiophen-5-yl)oxy)propoxy)-6-hydroxybenzo [b]thiophen-2-yl)-2-methyl-4-oxobutanoic acid]		121
5	177			COc1cc2sc(CC[C@H](C)C(=O)O)cc2c(F)c1OCCCOc1cc2cc(C(=O)C[C@H](C)C(=O)O)sc2cc1O [Example 181, (S)-4-(5-(3-((2-((S)-3-carboxybutyl)-4-fluoro-6-methoxybenzo[b]thiophen-5-yl)oxy)propoxy)-6-hydroxybenzo[b]thiophen-2-yl)-2-methyl-4-oxobutanoic acid]		104
1	2			COc1cc2sc(C(=O)C[C@H](C)C(=O)O)cc2c(Cl)c1OCCCOc1cc2cc(C(=O)C[C@H](C)C(=O)O)sc2cc1O [Example 182, (S)-4-(5-(3-((2-((S)-3-carboxybutanoyl)-4-chloro-6-methoxybenzo[b]thiophen-5-yl)oxy)propoxy)-6-hydroxybenzo[b]thiophen-2-yl)-2-methyl-4-oxobutanoic acid]		147
1	3			COc1cc2sc(C(=O)C[C@H](C)C(=O)O)cc2cc1OCCCOc1c(O)cc2sc(C(=O)C[C@H](C)C(=O)O)cc2c1Cl [Example 183, (S)-4-(5-(3-((2-((S)-3-carboxybutanoyl)-4-chloro-6-hydroxybenzo[b]thiophen-5-yl)oxy)propoxy)-6-methoxybenzo[b]thiophen-2-yl)-2-methyl-4-oxobutanoic acid]		127
353			29	COc1cc2sc(CC[C@H](C)C(=O)O)cc2cc1OCCCOc1c(O)cc2sc(C(=O)C[C@H](C)C(=O)O)cc2c1Cl [Example 184, (S)-4-(5-(3-((2-((S)-3-carboxybutyl)-6-methoxybenzo[b]thiophen-5-yl)oxy)propoxy)-4-chloro-6-hydroxybenzo[b]thiophen-2-yl)-2-methyl-4-oxobutanoic acid]		10
1	1			COc1cc2sc(C(=O)C[C@H](C)C(=O)O)cc2c(F)c1OCCCOc1c(O)cc2sc(C(=O)C[C@H](C)C(=O)O)cc2c1Cl [Example 185, (S)-4-(5-(3-((2-((S)-3-carboxybutanoyl)-4-chloro-6-hydroxybenzo[b]thiophen-5-yl)oxy)propoxy)-4-fluoro-6-methoxybenzo[b]thiophen-2-yl)-2-methyl-4-oxobutanoic acid]		122
